Molecules are shown by their SMILES.

Test system in one assay: not given
Assay: not given
Conditions: T2DM patients with NAFLD, 6-week clinical trial; cited from earlier work.
Turning to `CC[C@H]1[C@@H](O)[C@@H]2[C@H](CC[C@]3(C)[C@@H]([C@H](C)CCC(=O)O)CC[C@@H]23)[C@@]2(C)CC[C@@H](O)C[C@@H]12` [OCA, obeticholic acid], the body weight entry is recorded as “reduced body weight” and the insulin sensitivity entry was “statistically significantly improved insulin sensitivity”.

For a further assay, the target named is FXR (Homo sapiens (Human), UniProt Q96RI1). Kind of assay: FXR EC50 (FXR agonist potency reported with each Example). The assay is classed as cell-based.
Chain of FXR (Q96RI1 262-486): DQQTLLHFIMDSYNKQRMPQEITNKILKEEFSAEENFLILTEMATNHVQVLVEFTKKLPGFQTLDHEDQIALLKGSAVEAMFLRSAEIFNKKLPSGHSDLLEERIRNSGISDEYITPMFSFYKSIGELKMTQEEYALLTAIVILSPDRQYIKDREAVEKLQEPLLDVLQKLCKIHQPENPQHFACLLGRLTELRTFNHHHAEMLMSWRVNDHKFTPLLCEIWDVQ
Settings: not given
Regarding `Cn1nc(C(C)(C)C)cc1-c1cccc(N(CC23CCC(c4noc(C(C)(C)C)n4)(CC2)CC3)C(=O)C23CC(F)(C2)C3)c1` [Example 213, N-((4-(5-(tert-butyl)-1,2,4-oxadiazol-3-yl)bicyclo[2.2.2]octan-1-yl)methyl)-N-(3-(3-(tert-butyl)-1-methyl-1H-pyrazol-5-yl)phenyl)-3-fluorobicyclo[1.1.1]pentane-1-carboxamide], the EC50 came to 198 nM.
Compound `Cn1nc(-c2cccc(N(CC34CCC(c5noc(C(C)(C)C)n5)(CC3)CC4)C(=O)C34CC(F)(C3)C4)c2)cc1C(C)(C)C` [Example 214, N-((4-(5-(tert-butyl)-1,2,4-oxadiazol-3-yl)bicyclo[2.2.2]octan-1-yl)methyl)-N-(3-(5-(tert-butyl)-1-methyl-1H-pyrazol-3-yl)phenyl)-3-fluorobicyclo[1.1.1]pentane-1-carboxamide] displayed an EC50 of 89 nM. This EC50 is about 2.2-fold lower than that of the compound before.
The same measure, in the same setting: to `O=C(N(CC12CCC(c3nc(C4CC4)no3)(CC1)CC2)c1cccc(-n2cc(C3CC3)nn2)c1)C12CC(F)(C1)C2` [Example 219, N-((4-(3-cyclopropyl-1,2,4-oxadiazol-5-yl)bicyclo[2.2.2]octan-1-yl)methyl)-N-(3-(4-cyclopropyl-1H-1,2,3-triazol-1-yl)phenyl)-3-fluorobicyclo[1.1.1]pentane-1-carboxamide] belongs 98.4 nM; to `COc1cccc(-c2cccc(N(CC34CCC(c5nc(C)no5)(CC3)CC4)C(=O)C3CC(F)(F)C3)c2)c1` [Example 220, 3,3-Difluoro-N-(3′-methoxy-[1,1′-biphenyl]-3-yl)-N-((4-(3-methyl-1,2,4-oxadiazol-5-yl)bicyclo[2.2.2]octan-1-yl)methyl)cyclobutane-1-carboxamide], 547 nM.
On the same count and under the same terms, the same measure for `COc1cccc(-c2cccc(N(CC34CCC(c5nc(C)no5)(CC3)CC4)C(=O)C34CC(F)(C3)C4)c2)c1` [Example 221, 3-fluoro-N-(3′-methoxy-[1,1′-biphenyl]-3-yl)-N-((4-(3-methyl-1,2,4-oxadiazol-5-yl)bicyclo[2.2.2]octan-1-yl)methyl)bicyclo[1.1.1]pentane-1-carboxamide]: 506 nM; for `COc1cc(-c2cccc(N(CC34CCC(c5ccc(C(C)(C)C#N)cc5)(CC3)OC4)C(=O)C34CC(F)(C3)C4)c2)ccn1` [Example 222, N-((1-(4-(2-cyanopropan-2-yl)phenyl)-2-oxabicyclo[2.2.2]octan-4-yl)methyl)-3-fluoro-N-(3-(2-methoxypyridin-4-yl)phenyl)bicyclo[1.1.1]pentane-1-carboxamide]: 285 nM; for `COc1cc(-c2cccc(N(CC34CCC(c5ccc(C(C)(C)C#N)cc5)(CC3)OC4)C(=O)C3CCC3)c2)ccn1` [Example 223, N-((1-(4-(2-cyanopropan-2-yl)phenyl)-2-oxabicyclo[2.2.2]octan-4-yl)methyl)-N-(3-(2-methoxypyridin-4-yl)phenyl)cyclobutanecarboxamide]: 313 nM.
Same read-out and setting: to `COc1cc(-c2cccc(N(CC34CCC(c5ccc(C(C)(C)C#N)cc5)(CC3)OC4)C(=O)C3CCCC3)c2)ccn1` [Example 224, N-((1-(4-(2-cyanopropan-2-yl)phenyl)-2-oxabicyclo[2.2.2]octan-4-yl)methyl)-N-(3-(2-methoxypyridin-4-yl)phenyl)cyclopentanecarboxamide] belongs 894 nM; to `CCOc1ccnc(-c2cccc(N(CC34CCC(c5nc(C6CC6)no5)(CC3)CC4)C(=O)C34CC(F)(C3)C4)c2)c1` [Example 225, N-((4-(3-cyclopropyl-1,2,4-oxadiazol-5-yl)bicyclo[2.2.2]octan-1-yl)methyl)-N-(3-(4-ethoxypyridin-2-yl)phenyl)-3-fluorobicyclo[1.1.1]pentane-1-carboxamide], 241 nM; to `CCOc1cc(-c2cccc(N(CC34CCC(c5nc(C6CC6)no5)(CC3)CC4)C(=O)C34CC(F)(C3)C4)c2)ccn1` [Example 226, N-((4-(3-cyclopropyl-1,2,4-oxadiazol-5-yl)bicyclo[2.2.2]octan-1-yl)methyl)-N-(3-(2-ethoxypyridin-4-yl)phenyl)-3-fluorobicyclo[1.1.1]pentane-1-carboxamide], 219 nM.
Compound `COc1cc(-c2cccc(N(CC34CCC(c5nc(C6CCOCC6)no5)(CC3)CC4)C(=O)C34CC(F)(C3)C4)c2)ccn1` [Example 227, 3-Fluoro-N-(3-(2-methoxypyridin-4-yl)phenyl)-N-((4-(3-(tetrahydro-2H-pyran-4-yl)-1,2,4-oxadiazol-5-yl)bicyclo[2.2.2]octan-1-yl)methyl)bicyclo[1.1.1]pentane-1-carboxamide] had an EC50 of 377 nM. This EC50 lies about 1.7-fold higher than the previous one.
On the same count and under the same terms, the same measure for `COc1cc(-c2cccc(N(CC34CCC(c5nc(C)no5)(CC3)CC4)C(=O)C34CC(F)(C3)C4)c2)ccn1` [Example 228, 3-fluoro-N-(3-(2-methoxypyridin-4-yl)phenyl)-N-((4-(3-methyl-1,2,4-oxadiazol-5-yl)bicyclo[2.2.2]octan-1-yl)methyl)bicyclo[1.1.1]pentane-1-carboxamide]: 442 nM; for `COc1cc(-c2cccc(N(CC34CCC(c5nc(C6CC6)no5)(CC3)CC4)C(=O)C34CC(F)(C3)C4)c2)ccn1` [Example 229, N-((4-(3-cyclopropyl-1,2,4-oxadiazol-5-yl)bicyclo[2.2.2]octan-1-yl)methyl)-3-fluoro-N-(3-(2-methoxypyridin-4-yl)phenyl)bicyclo[1.1.1]pentane-1-carboxamide]: 154 nM.

Test system in another assay: not given
Assay: not given
The conditions noted are these: patients with NASH, 72-week clinical trial; cited from earlier work.
Take `CC[C@H]1[C@@H](O)[C@@H]2[C@H](CC[C@]3(C)[C@@H]([C@H](C)CCC(=O)O)CC[C@@H]23)[C@@]2(C)CC[C@@H](O)C[C@@H]12` [OCA, obeticholic acid]: the “hepatic steatosis, lobular inflammation, hepatocyte ballooning, and fibrosis as assessed by histological analyses of liver biopsies” value was “statistically significantly improved hepatic steatosis, lobular inflammation, hepatocyte ballooning, and fibrosis”.

One may read the EC50 as the concentration at which the effect is half-maximal.

The values above are taken from patent US11254663B2 (BRISTOL-MYERS SQUIBB COMPANY, priority 2019, dated 2022).
